Experimental data as given in patent publication US20090062294A1, “HETEROARYL-SUBSTITUTED UREA MODULATORS OF FATTY ACID AMIDE HYDROLASE” (priority 2007, published 2009).
Where a name gives a salt, the structure may show the parent alone.

Columns and labels:
rat FAAH = molecular target: T1, rat FAAH (Rattus norvegicus, UniProt P97612); experiment: Assay Method 2: FAAH assay, 3H-anandamide hydrolysis in homogenate of SK-N-MC cells transfected with rat FAAH; type: biochemical; conditions: average of results, > = solubility limit or highest concentration tested
T1 sequence (P97612 1-579): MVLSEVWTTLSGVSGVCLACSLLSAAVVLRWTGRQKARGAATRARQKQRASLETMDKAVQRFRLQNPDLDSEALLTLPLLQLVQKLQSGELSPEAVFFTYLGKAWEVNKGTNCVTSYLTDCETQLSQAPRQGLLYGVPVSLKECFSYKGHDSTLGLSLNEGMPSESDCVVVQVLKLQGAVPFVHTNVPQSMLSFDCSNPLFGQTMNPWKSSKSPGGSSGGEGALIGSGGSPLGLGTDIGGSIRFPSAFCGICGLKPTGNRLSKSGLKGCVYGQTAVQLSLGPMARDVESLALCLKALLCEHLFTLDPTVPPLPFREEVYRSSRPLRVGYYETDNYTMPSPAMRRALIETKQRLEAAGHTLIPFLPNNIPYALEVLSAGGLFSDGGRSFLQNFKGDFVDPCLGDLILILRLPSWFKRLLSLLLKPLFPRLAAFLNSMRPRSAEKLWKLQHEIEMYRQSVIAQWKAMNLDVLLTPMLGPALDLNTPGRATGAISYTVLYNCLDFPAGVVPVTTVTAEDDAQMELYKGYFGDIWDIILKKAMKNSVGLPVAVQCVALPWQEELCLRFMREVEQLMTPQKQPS
How it was run: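 Read-out is scintillation counting of [3H]-ethanolamine passing through activated charcoal, after 1 h at rt with 80 nM final [3H]-AEA. Enzyme source: lysate of G418-selected SK-N-MC clones expressing rat FAAH, homogenized in Tris/EDTA/glycerol/0.02% Triton buffer, pH 9.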

FAAH = molecular target: T2, FAAH (Homo sapiens, UniProt O00519); experiment: Assay Method 1: FAAH assay, 3H-anandamide hydrolysis in homogenate of T84 cells or SK-N-MC cells transfected with human FAAH; type: biochemical; conditions: average of results, > = solubility limit or highest concentration tested
T2 sequence (O00519 1-579): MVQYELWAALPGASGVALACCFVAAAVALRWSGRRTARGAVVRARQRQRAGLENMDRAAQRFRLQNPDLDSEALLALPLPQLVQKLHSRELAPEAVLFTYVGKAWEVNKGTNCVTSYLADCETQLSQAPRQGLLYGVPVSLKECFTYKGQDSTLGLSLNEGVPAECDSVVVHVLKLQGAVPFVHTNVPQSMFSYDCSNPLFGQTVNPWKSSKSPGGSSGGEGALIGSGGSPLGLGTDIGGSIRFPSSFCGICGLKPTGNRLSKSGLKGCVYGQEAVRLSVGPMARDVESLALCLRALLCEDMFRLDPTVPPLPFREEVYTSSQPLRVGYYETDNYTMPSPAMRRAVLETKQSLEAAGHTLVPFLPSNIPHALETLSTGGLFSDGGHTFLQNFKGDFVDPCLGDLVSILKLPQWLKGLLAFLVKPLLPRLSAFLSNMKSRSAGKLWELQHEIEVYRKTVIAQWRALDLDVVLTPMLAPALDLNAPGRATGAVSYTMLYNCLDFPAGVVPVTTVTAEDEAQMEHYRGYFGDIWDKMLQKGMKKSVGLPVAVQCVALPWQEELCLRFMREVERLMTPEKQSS
How it was run: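 Hydrolysis of ^3H-anandamide (80 nM final, added last) was measured over 1 h at rt, using test compound with homogenate of T84 cells or human FAAH-transfected SK-N-MC cells. The homogenization buffer was 125 mM Tris, 1 mM EDTA, 0.02% Triton X-100, pH 9. Unbound labelled ethanolamine was passed through charcoal filters and scintillation-counted.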

| IC50 (rat FAAH) [µM] | IC50 (FAAH) [µM] | Compound |
| --- | --- | --- |
| 6 | 0.39 | O=C(Nc1cccnn1)N1CCN(Cc2ccc3ccccc3n2)CC1 [Example 198, N-Pyridazin-3-yl-4-(quinolin-2-ylmethyl)piperazine-1-carboxamide] |
| 0.049 | 0.627 | O=C(Nc1ccon1)N1CCN(Cc2cccc(Oc3cccc(C(F)(F)F)c3)c2)CC1 [Example 48, 4-[3-(3-Trifluoromethyl-phenoxy)-benzyl]-piperazine-1-carboxylic acid isoxazol-3-ylamide trifluoroacetic acid salt] |
| 0.03 | 0.052 | O=C(Nc1noc2ccccc12)N1CCN(Cc2cccc(Oc3ccc(F)c(F)c3)c2)CC1 [Example 33, 4-[3-(3,4-Difluoro-phenoxy)-benzyl]-piperazine-1-carboxylic acid benzo[d]isoxazol-3-ylamide] |
| 0.03 | 0.001 | O=C(Nc1cnccn1)N1CCN(Cc2cccc(Oc3ccc(C(F)(F)F)cc3)c2)CC1 [Example 215, N-Pyrazin-2-yl-4-{3-[4-(trifluoromethyl)phenoxy]benzyl}piperazine-1-carboxamide] |
| 0.11 | 0.12 | O=C(Nc1noc2ccccc12)N1CCN(Cc2ccc(OC(F)(F)F)cc2)CC1 [Example 103, N-1,2-Benzisoxazol-3-yl-4-[4-(trifluoromethoxy)benzyl]piperazine-1-carboxamide] |
| 0.03 | 0.02 | O=C(Nc1noc2ccccc12)N1CCN(Cc2cc3ccccc3s2)CC1 [Example 113, N-1,2-Benzisoxazol-3-yl-4-(1-benzothiophen-2-ylmethyl)piperazine-1-carboxamide] |
| 6 | 0.6 | N#Cc1cccc(Oc2cccc(CN3CCN(C(=O)Nc4cnccn4)CC3)c2)c1 [Example 235, 4-[3-(3-Cyanophenoxy)benzyl]-N-pyrazin-2-ylpiperazine-1-carboxamide] |
| 0.69 | 0.037 | COc1ccc(NC(=O)N2CCN(Cc3cccc(Oc4ccc(Cl)cc4)c3)CC2)nn1 [Example 104, 4-[3-(4-Chlorophenoxy)benzyl]-N-(6-methoxypyridazin-3-yl)piperazine-1-carboxamide] |
| 0.59 | 0.28 | O=C(Nc1cccnn1)N1CCN(Cc2ccc(Cl)c(Cl)c2)CC1 [Example 199, 4-(3,4-Dichlorobenzyl)-N-pyridazin-3-ylpiperazine-1-carboxamide] |
| > 10 | 3 | Cc1cc(NC(=O)N2CCN(Cc3cccc(Oc4ccc(Cl)cc4)c3)CC2)nn1C [Example 191, 4-[3-(4-Chloro-phenoxy)-benzyl]-piperazine-1-carboxylic acid (1,5-dimethyl-1H-pyrazol-3-yl)-amide trifluoroacetic acid salt] |
| 0.43 | 0.016 | O=C(Nc1ccon1)N1CCN(Cc2cccc(Oc3ccc(Br)cc3)c2)CC1 [Example 145, 4-[3-(4-Bromophenoxy)benzyl]-N-isoxazol-3-ylpiperazine-1-carboxamide] |
| 0.29 | 0.77 | O=C(Nc1ccsc1)N1CCN(Cc2ccc3c(c2)OC(F)(F)O3)CC1 [Example 8, 4-(2,2-Difluoro-benzo[1,3]dioxol-5-ylmethyl)-piperazine-1-carboxylic acid thiophen-3-ylamide] |
| 0.033 | 0.024 | O=C(Nc1noc2ccccc12)N1CCN(Cc2cccc(C#Cc3cccc(Cl)c3)c2)CC1 [Example 73, N-1,2-Benzisoxazol-3-yl-4-{3-[(3-chlorophenyl)ethynyl]benzyl}-piperazine-1-carboxamide] |
| 0.76 | 0.4 | O=C(Nc1noc2ccccc12)N1CCN(Cc2ccc3c(c2)OCO3)CC1 [Example 116, N-1,2-Benzisoxazol-3-yl-4-(1,3-benzodioxol-5-ylmethyl)piperazine-1-carboxamide] |
| 0.004 | 0.02 | O=C(Nc1noc2ccccc12)N1CCN(Cc2cccc(Oc3ccc(SC(F)(F)F)cc3)c2)CC1 [Example 130, N-1,2-Benzisoxazol-3-yl-4-(3-{4-[(trifluoromethyl)sulfanyl]phenoxy}-benzyl)piperazine-1-carboxamide] |
| 8 | 3 | O=C(Nc1ccon1)N1CCN(Cc2ccc(Cl)c(Cl)c2)CC1 [Example 160, 4-(3,4-Dichlorobenzyl)-N-isoxazol-3-ylpiperazine-1-carboxamide] |
| 0.535 | 0.043 | O=C(Nc1cnccn1)N1CCN(Cc2cccc(Oc3cccc(Cl)c3)c2)CC1 [Example 225, 4-[3-(3-Chlorophenoxy)benzyl]-N-pyrazin-2-ylpiperazine-1-carboxamide] |
| 0.3 | 0.05 | O=C(Nc1ccon1)N1CCN(Cc2cccc(Oc3cccc(OC(F)(F)F)c3)c2)CC1 [Example 159, N-Isoxazol-3-yl-4-{3-[3-(trifluoromethoxy)phenoxy]benzyl}piperazine-1-carboxamide] |
| 0.03 | 0.024 | O=C(Nc1noc2ccccc12)N1CCN(Cc2cccc(C#Cc3ccccc3Cl)c2)CC1 [Example 72, N-1,2-Benzisoxazol-3-yl-4-{3-[(2-chlorophenyl)-ethynyl]benzyl}-piperazine-1-carboxamide] |
| 0.012 | 0.006 | O=C(Nc1cnccn1)N1CCN(Cc2cccc(Oc3ccc(SC(F)(F)F)cc3)c2)CC1 [Example 234, N-Pyrazin-2-yl-4-(3-{4-[(trifluoromethyl)sulfanyl]phenoxy}benzyl)-piperazine-1-carboxamide] |
| 0.02 | 0.02 | O=C(Nc1noc2ccccc12)N1CCN(Cc2cccc(Oc3ccc4ncccc4c3)c2)CC1 [Example 114, N-1,2-Benzisoxazol-3-yl-4-[3-(quinolin-6-yloxy)benzyl]piperazine-1-carboxamide] |
| 0.004 | 0.003 | O=C(Nc1noc2ccccc12)N1CCN(Cc2cccc(Oc3ccc(Br)cc3)c2)CC1 [Example 32, 4-[3-(4-Bromo-phenoxy)-benzyl]-piperazine-1-carboxylic acid benzo[d]isoxazol-3-ylamide trifluoroacetic acid salt] |
| 6 | 0.7 | O=C(Nc1cnccn1)N1CCN(Cc2ccc3ccccc3n2)CC1 [Example 239, N-Pyrazin-2-yl-4-(quinolin-2-ylmethyl)piperazine-1-carboxamide] |
| 0.021 | 0.011 | O=C(Nc1noc2ccccc12)N1CCN(Cc2cccc(Oc3ccc(Cl)c(F)c3)c2)CC1 [Example 206, 4-[3-(4-Chloro-3-fluoro-phenoxy)-benzyl]-piperazine-1-carboxylic acid benzo[d]isoxazol-3-ylamide] |
| 0.262 | 0.027 | N#CCc1ccccc1C#Cc1cccc(CN2CCN(C(=O)Nc3noc4ccccc34)CC2)c1 [Example 92, N-1,2-Benzisoxazol-3-yl-4-(3-{[2-(cyanomethyl)phenyl]ethynyl}-benzyl)piperazine-1-carboxamide] |
| 0.05 | 0.003 | O=C(Nc1cnccn1)N1CCN(Cc2cccc(Oc3ccc(Br)cc3)c2)CC1 [Example 221, 4-[3-(4-Bromophenoxy)benzyl]-N-pyrazin-2-ylpiperazine-1-carboxamide] |
| > 10 | > 10 | CS(=O)(=O)c1ccc(CN2CCN(C(=O)Nc3noc4ccccc34)CC2)cc1 [Example 102, N-1,2-Benzisoxazol-3-yl-4-[4-(methylsulfonyl)benzyl]piperazine-1-carboxamide] |
| 0.315 | 0.016 | C#Cc1cccc(CN2CCN(C(=O)Nc3noc4ccccc34)CC2)c1 [Example 68, 4-(3-Ethynyl-benzyl)-piperazine-1-carboxylic acid benzo[d]isoxazol-3-ylamide] |
| 0.04 | 0.04 | O=C(Nc1noc2ccccc12)N1CCN(Cc2cccc(Oc3cccc(Cl)c3)c2)CC1 [Example 127, N-1,2-Benzisoxazol-3-yl-4-[3-(3-chlorophenoxy)benzyl]piperazine-1-carboxamide] |
